Test results from patent US9988371B2, “Benzimidazole analogues and related methods” (The Arizona Board of Regents, on Behalf of the University …, priority 2014, dated 2018).

Legend:
RET/C634W = biological target: T1, RET/C634W (Homo sapiens, UniProt P07949, C634W); assay: RET auto-phosphorylation immunoblot in TT cells; format: cell-based; conditions: 1 nM
T1 construct: RET protein endogenously expressed in TT cells; endogenous in cells; host or cells: TT (human medullary thyroid carcinoma)
Method: (§1) FIG. 3: Photographs of blots showing inhibition of RET protein endogenously expressed in TT cells (human MTC cell line expressing RET/C634W) by indicated concentrations of Pz-1 or vehicle (NT: not treated) and reduced effects in thyroid non-transformed Nthy-ori-3-1 cells. Serum-starved human TT and thyroid non-transformed Nthy-ori-3-1 cell lines were treated for 2 hr with indicated concentrations of Pz-1. 50 μg of total cell lysates were subjected to immunoblotting with anti-phospho-Y1062 (αp1062) and anti-phospho-905 (αpY905) RET antibodies, anti-phospho-MAPK (αpMAPK, T302/Y304), and anti-phospho-SHC (αpSHC, Y317) antibodies. The blots were normalized using anti-RET (αRET) and anti-SHC (αSHC).
(§2) The inhibition of RET auto-phosphorylation by Pz-1 was measured in several different cell lines including NIH3T3 fibroblasts expressing RET/C634Y or RET/M918T, TT expressing RET/C634W (MTC), Nthy-ory-3-1 (thyroid, non-transformed with RET; negative control), HEK293/RET/PTC1 (CCDC6-RET that can be found in PTC & lung cancer), HEK293/RET-KIF5B (that can be found in lung cancer), HEK293/RET/PTC3 (NCOA4-RET, that can be found in PTC & lung cancer), and HEK293 transfected with RET/C634R-V804M (FIGS. 1-3). […]
(§3) Protein lysates were prepared according to standard procedures. […] Immune complexes were detected with the enhanced chemiluminescence kit (Amersham Pharmacia Biotech, Little Chalfort, UK). […]

pMAPK [1] = assay: pMAPK immunoblot in TT cells; format: cell-based, human; conditions: 1 nM
Method: as §1, §2, §3

pMAPK [2] = assay: pMAPK immunoblot in Nthy-ori-3-1 cells; format: cell-based, human; conditions: Nthy-ory-3-1, non-transformed with oncogenic RET
Method: as §1, §2, §3

[3] = system: parental NIH3T3 fibroblasts; assay: Growth of parental NIH3T3 fibroblasts; format: cell-based; conditions: up to 1000 nM, 3 days

T1 sequence (P07949 29-1114 C634W): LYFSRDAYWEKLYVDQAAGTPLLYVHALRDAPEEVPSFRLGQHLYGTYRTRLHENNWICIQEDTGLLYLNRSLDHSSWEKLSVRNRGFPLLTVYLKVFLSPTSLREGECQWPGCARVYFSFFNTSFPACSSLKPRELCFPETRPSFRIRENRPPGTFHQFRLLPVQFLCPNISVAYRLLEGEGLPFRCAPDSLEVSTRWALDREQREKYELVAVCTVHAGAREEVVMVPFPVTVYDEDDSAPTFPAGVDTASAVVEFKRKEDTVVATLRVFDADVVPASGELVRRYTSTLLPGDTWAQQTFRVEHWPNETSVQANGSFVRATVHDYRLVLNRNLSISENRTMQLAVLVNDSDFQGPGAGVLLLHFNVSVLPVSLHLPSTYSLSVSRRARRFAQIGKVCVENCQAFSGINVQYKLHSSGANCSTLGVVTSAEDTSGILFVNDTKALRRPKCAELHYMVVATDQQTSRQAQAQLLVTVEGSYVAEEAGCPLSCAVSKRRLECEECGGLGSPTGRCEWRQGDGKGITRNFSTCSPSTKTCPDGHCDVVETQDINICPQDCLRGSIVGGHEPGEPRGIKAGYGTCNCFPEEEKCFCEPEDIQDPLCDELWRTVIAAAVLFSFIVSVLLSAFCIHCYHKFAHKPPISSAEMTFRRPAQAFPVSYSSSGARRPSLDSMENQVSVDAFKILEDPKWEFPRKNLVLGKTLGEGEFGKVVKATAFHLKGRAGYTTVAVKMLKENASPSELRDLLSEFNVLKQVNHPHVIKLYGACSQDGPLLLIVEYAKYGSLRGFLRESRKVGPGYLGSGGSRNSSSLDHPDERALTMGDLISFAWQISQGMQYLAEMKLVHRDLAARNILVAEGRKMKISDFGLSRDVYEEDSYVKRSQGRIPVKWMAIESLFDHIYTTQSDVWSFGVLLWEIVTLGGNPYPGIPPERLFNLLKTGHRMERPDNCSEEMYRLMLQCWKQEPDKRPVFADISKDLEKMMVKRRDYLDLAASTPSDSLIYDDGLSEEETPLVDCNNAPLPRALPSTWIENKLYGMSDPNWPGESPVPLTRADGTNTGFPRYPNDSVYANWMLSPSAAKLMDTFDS

## Cn1cc(-c2ccc3c(c2)ncn3-c2ccc(CC(=O)Nc3cc(C(C)(C)C)on3)cc2)cn1 [Pz-1, N-(5-(tert-butyl)isoxazol-3-yl)-2-(4-(5-(1-methyl-1H-pyrazol-4-yl)-1H-benzo[d]imidazol-1-yl)phenyl)acetamide]
RET/C634W
  inhibition of pRET: strongly inhibited
pMAPK [1]
  inhibition of pMAPK: strongly inhibited
pMAPK [2]
  concentration at which pMAPK was inhibited: 100 nM
[3]
  effect on growth: did not significantly reduce growth
